Literature values as cited in patent US6756428B2, “Degradable plastics possessing a microbe-inhibiting quality” (Seefar Technologies, Incorporated, priority 1999, dated 2004).
≈ marks a conversion by molar mass, not a printed value. Like-named read-outs stand apart in the source and are kept apart here.

Experiments:
[1] = test system: Staphylococcus aureus bacteria
[2] = test system: Pseudomonas aeruginosa bacteria; details: bacterium P aeruginosa

Row | solubility in acetone (acetone, 25° C.) | solubility in ethanol (25° C.) | solubility in water (25° C.) | MIC ([1]; against Staphylococcus aureus bacteria) | MIC (fungus Aspergillus niger; against the fungus Aspergillus niger) | SMILES | solubility in dilute alkali solution (dilute alkali solution) | solubility in ethanol | solubility in water | MIC ([1]; against S. aureus) | MIC [2] | MIC (fungus Aspergillus niger; against A. niger) | LD50 oral toxicity (dogs)
1 | 350 mg/mL (≈ 829 mM) | 20 mg/mL (≈ 47.4 mM) | 0.0001 mg/mL (≈ 0.000237 mM) | about 50 mg/L | about 5 mg/L | Cc1ccc(S(=O)(=O)C(I)I)cc1 [DIMTS, diiodomethyl-p-tolylsulphone] | – | – | – | – | – | – | –
2 | – | – | – | – | – | Oc1cc(Cl)ccc1Oc1ccc(Cl)cc1Cl [triclosan, 2,4,4″-trichloro-2-hydroxydiphenylether] | sparingly soluble | soluble | insoluble | about 0.01 ppm | about 100 ppm | about 100 ppm | > 5000 mg/kg
